From US5349127A, “Expression of herbicide metabolizing cytochromes P450” (priority 1992, dated 1994)

Assays:
[1] = system: S. lividans pCAO200SU2-FeS-A#11; test: Sulfonylurea metabolism by washed cell suspension (Examples 11-12); type: in vitro ADME, Streptomyces lividans; conditions: for concentration in supernatant: substrate 10010
[2] = system: leaves of transformed tobacco; test: Metabolism of 10001 in excised tobacco leaves (Example 20); type: in vitro ADME, Nicotiana tabacum; conditions: plants transformed with pSSU-SU111 and pCab-SU131, 21 hours
Protocol: Plants were grown from tobacco seed produced by self-pollinated transformed plants in Metro-Mix® 350 under 16 hour light (light intensity of 400 μEinsteins per second per square meter at pot level, 22° C. and 80% relative humidity) followed by 8 hours of dark (18° C. and 70 to 80% relative humidity) and watered three times daily with half strength Hoagland's solution. The presence of the cytochrome P450 protein in individual plants was confirmed by Western blot analysis before testing for sulfonylurea metabolism.
During growth, the tobacco plants produced leaves attached to the main stalk, none of which were of the same age or size. […]
Individual leaves were extracted with 30 ml acetone/water (80%/20% by volume) for 1 minute in a Sorvall® Omni-Mixer. […] 10015 and its metabolites were detected at 254 nm while ^14 C-10001 and its metabolites were detected with a Radiomatic Flo-One® detector. A diode array detector was used in separate experiments to obtain the absorbance spectra of the 10015 metabolite and an 10014 standard in the HPLC analysis of several extracts (HPLC method is described in Romesser et al., Biochem. Biophys. Res. Comm., 140:650-659 (1986)). Comparison of the metabolite absorbance spectrum with that of the 10014 confirmed the metabolite's identity. […]

[3] = system: S. griseolus ATCC 11796, 10001 added; test: Percent conversion of herbicides by cultures (Example 16); type: in vitro ADME, Streptomyces griseolus; conditions: 3.0 mg herbicide and 3.0 mg 10001 in 25 ml broth; 24 hours
Protocol: (§1) Separate cultures (50 ml) inoculated with S. lividans C37, S. lividans transformed with pCAO200SU1-FeS-B#9, S. griseolus ATCC11796, S. griseolus PH2003 transformed with pIJ425, or S. ariseolus PH2003 transformed with pCS325 were cultured in sporulation broth for 18 hours at 30° C. with shaking. Each culture was then resuspended in 25 ml fresh sporulation broth and 3.0 mg herbicide added. In the case of cultures of S. griseolus ATCC11796, a second culture containing herbicide and 3.0 mg 10001 was also prepared. Each culture was reincubated for 24 hours, then an aliquot of the medium was withdrawn and analyzed by HPLC. The percent conversion of herbicide was determined.

S. griseolus ATCC 11796 = test: as above; type: in vitro ADME, Streptomyces griseolus; conditions: 3.0 mg herbicide in 25 ml broth; 24 hours
Protocol: as §1

[4] = system: S. griseolus PH2003 pCS325; test: as above; type: in vitro ADME, Streptomyces griseolus; conditions: 3.0 mg herbicide in 25 ml broth; 24 hours
Protocol: as §1

[5] = system: S. griseolus PH2003 pIJ425; test: as above; type: in vitro ADME, Streptomyces griseolus; conditions: 3.0 mg herbicide in 25 ml broth; 24 hours
Protocol: as §1

S. griseolus ATCC11796 = test: Metabolism of 10015 analogs to 10014 (Example 17); type: in vitro ADME, Streptomyces griseolus
Protocol: Cultures of S. griseolus ATCC11796 were cultivated in sporulation-broth (50ml) at 30° C. with shaking for 17 hours. Each culture was then resuspended in 25 ml fresh sporulation broth, 3.0 mg sulfonylurea was added, and the culture reincubated for 4 days. Aliquots of the medium were then analyzed by HPLC. Formation of 10014 was measured based on similarity of retention time and UV spectrum of the test metabolite to that formed by metabolism of 10015.

COC(=O)c1ccccc1S(=O)(=O)NC(=O)Nc1nc(C)cc(C)n1 [compound 10010, N-[(4,6-dimethylpyrimidin-2-yl)aminocarbonyl]-2-methoxycarbonylbenzenesulfonamide]
concentration in supernatant ([1]; 2 h): 90 µM | concentration in supernatant ([1]; 4 h): 84 µM | concentration in supernatant ([1]; 6 h): 72 µM | metabolism compared with uninduced S. griseolus PH2001 ([1]; summary of Example 12): more readily than uninduced S. griseolus PH2001

CCOC(=O)c1ccccc1S(=O)(=O)NC(=O)Nc1nc(O)cc(Cl)n1 [compound 10002, N-[(4-chloro-6-hydroxy-pyrimidin-2-yl)aminocarbonyl]-2-ethoxycarbonylbenzenesulfonamide]
metabolite production versus leaf tissue of pAGS112 plants ([2]; substrate 10001): more 10002 was produced

CCOC(=O)c1ccccc1S(=O)(=O)NC(=O)Nc1nc(Cl)cc(OC)n1 [compound 10001, N-[(4-chloro-6-methoxy-pyrimidin-2-yl)aminocarbonyl]-2-ethoxycarbonylbenzenesulfonamide]
Percent Conversion [3]: 100% | Percent Conversion (S. griseolus ATCC 11796): 100% | Percent Conversion [4]: 100% | Percent Conversion [5]: 100% | extent of metabolism versus leaf tissue of pAGS112 plants [2]: metabolized to a significantly greater extent

COc1cc(OC)nc(NC(=O)NS(=O)(=O)c2cccc3c2S(=O)(=O)N(C(C)C)C3)n1 [compound 10015]
metabolism by P450SU1 to phytotoxic 10014 (S. griseolus ATCC11796): metabolized
